Data from ChEMBL document CHEMBL1132649, “Molecular modeling and synthesis of inhibitors of herpes simplex virus type 1 uracil-DNA glycosylase” (J Med Chem, 1999).

The compounds below were run on Uracil-DNA glycosylase (Herpes simplex virus type 1) (assay: Inhibitory potency against HSV-1 UDG( Herpes Simplex virus type-I Uracil DNA glycosylase); 10-15% inhibition was observed at a concentration of 40 uM). Conditions: Human alphaherpesvirus 1.

inhibition, 15%:
CCCCCCc1ccc(Nc2cc(=O)[nH]c(=O)n2C)cc1, CCCCCCc1ccc(Nc2cc(=O)[nH]c(=O)n2CC)cc1, CCCCCCc1ccc(Nc2cc(=O)[nH]c(=O)n2CCC)cc1
